According to patent US7060451B2, “Methods for screening GABA-modulatory compounds for specified pharmacological activities” (Neurogen Corporation, priority 1999, dated 2006):
Marks after values point to notes of the source that are not given here.

Legend:
[1] = target: GABAA receptors (benzodiazepine site, Ro15-1788 binding sites), rat cortex; test: Ro15-1788 competition binding assay, rat cortex membranes; details: displacement of 3H Ro15-1788, read-out: Ro15-1788 binding, K1
Experimental: Rat cortex membranes are prepared by homogenizing one or two previously frozen rat cortexes in 30 ml of 25 mM Tris Buffer, pH 7.4. The homogenate is centrifuged for 10 minutes at 500× g. The supernatant is then transferred to a clean centrifuge tube and the pellet discarded. The supernatant is spun for 20 minutes at 48,000× g. The supernatant from this spin is discarded and the pellet is resuspended in 30 ml of 25 mM Tris Buffer, pH 7.4 and centrifuged for an additional 10 minutes at 48,000× g. The supernatant from the final spin is discarded and the membrane pellet is resuspended in 100 mL Tris buffer per gram of cortex used.
The cortex membrane preparation is used to perform either percent inhibition or competition binding assays. In order to determine percent inhibition 300 μl of resuspended membranes are mixed with 200 μl ^3H labeled Ro15-1788 (final concentration 2.5 nM) and incubated for 1 hour on ice in the presence of 2 μl test compound in DMSO (final concentration 4 μM). Membranes are harvested onto untreated filtermats. The filtermats are dried and the ^3H Ro15-1788 signal is counted in a scintillation counter. Nonspecific binding is determined by displacement of ^3H Ro15-1788 with 10 μM Diazepam (RBI) or any other compound known to bind tightly at the benzodiazepine site.
K1 values are calculated according to the Cheng-Prussof equation.

rats [2] = test: spatial water maze; type: in vivo; details: rat
[3] = target: α5β3γ2 GABAA subtype receptor (Homo sapiens, UniProt P18507+P31644); test: oocyte electrophysiology, two electrode voltage-clamp, potentiation of GABA current; type: cell-based; details: Xenopus oocytes, human subunits, GABA EC10; for Emax: read-out: oocyte electrophysiology maximum potentiation (%) α5β3γ2
Sequence of α5β3γ2 GABAA subtype receptor (P31644 32-462): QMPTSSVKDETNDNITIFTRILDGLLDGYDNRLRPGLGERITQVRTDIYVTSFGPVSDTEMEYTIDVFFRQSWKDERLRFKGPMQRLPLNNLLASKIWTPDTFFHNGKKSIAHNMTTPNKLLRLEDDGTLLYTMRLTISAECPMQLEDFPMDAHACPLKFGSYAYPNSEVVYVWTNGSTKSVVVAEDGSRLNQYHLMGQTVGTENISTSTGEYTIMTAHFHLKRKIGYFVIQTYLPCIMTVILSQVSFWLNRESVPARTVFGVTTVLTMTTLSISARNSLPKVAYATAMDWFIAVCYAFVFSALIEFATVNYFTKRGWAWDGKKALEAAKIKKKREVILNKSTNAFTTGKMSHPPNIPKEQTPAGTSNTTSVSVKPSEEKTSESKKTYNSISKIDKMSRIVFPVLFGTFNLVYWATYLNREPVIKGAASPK
Sequence of α5β3γ2 GABAA subtype receptor (P28472 26-473 partner): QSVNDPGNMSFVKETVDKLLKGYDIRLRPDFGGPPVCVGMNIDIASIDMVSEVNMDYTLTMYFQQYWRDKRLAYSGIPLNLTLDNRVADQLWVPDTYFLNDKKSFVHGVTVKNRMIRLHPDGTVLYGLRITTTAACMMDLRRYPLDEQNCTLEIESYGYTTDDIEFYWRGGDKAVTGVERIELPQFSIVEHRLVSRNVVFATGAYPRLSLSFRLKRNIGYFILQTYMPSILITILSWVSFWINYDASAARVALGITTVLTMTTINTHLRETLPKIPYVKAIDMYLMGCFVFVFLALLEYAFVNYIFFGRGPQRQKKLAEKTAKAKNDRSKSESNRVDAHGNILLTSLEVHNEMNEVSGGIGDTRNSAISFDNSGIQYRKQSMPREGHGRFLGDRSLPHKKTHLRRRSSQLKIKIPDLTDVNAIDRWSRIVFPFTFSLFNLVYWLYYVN
Sequence of α5β3γ2 GABAA subtype receptor (P18507 40-475): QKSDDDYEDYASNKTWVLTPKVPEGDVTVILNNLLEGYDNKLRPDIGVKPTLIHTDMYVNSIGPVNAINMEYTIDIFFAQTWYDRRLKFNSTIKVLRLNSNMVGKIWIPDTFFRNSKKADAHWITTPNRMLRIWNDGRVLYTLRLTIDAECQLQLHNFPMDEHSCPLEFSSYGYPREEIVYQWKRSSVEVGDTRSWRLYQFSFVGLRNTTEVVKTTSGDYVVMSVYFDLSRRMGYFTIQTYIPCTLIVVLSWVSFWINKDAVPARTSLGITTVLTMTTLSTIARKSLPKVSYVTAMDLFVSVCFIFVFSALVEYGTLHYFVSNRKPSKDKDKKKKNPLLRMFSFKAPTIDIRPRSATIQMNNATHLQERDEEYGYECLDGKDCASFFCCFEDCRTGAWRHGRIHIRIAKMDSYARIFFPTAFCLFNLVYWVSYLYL
Experimental: (§1) Assays are carried out as described previously in White and Gurley, 1995 and White, et al., 1995. Xenopus laevis oocytes are enzymatically isolated and injected with non-polyadenylated cRNA for human derived α, β and γ GABAA subunits, respectively. In more preferred embodiments cRNA for the α1β2γ2, α2β3γ2, α3β3γ2, and α5β3γ2 subunit combinations are injected. Only one of these subunit combinations is injected per cell. For each subunit combination, sufficient message is injected to result in current amplitudes of >10 nA when 1 μM GABA is applied. Electrophysiological recordings are carried out using the two electrode voltage-clamp technique at a membrane holding potential of −70 mV.
(§2) Compounds are evaluated against a GABA concentration that evokes <10% (EC10) of the maximal evocable GABA current. Each oocyte is exposed to increasing concentrations of compound in order to evaluate a concentration/effect relationship.
(§3) Specificity of a compound for the Ro15-1788 site is determined following completion of the concentration/effect curve. After washing the oocyte sufficiently to remove previously applied compound, the oocyte is exposed to GABA and 1 μM Ro15-1788, followed by exposure to GABA, 1 μM Ro15-1788, and compound. Percent change due to addition of compound is calculated as described above. Any percent change observed in the presence of Ro15-1788 is subtracted from the percent changes in current amplitude observed in the absence of 1 μM Ro15-1788. These net values are used for the calculation of average activity and EC50 values.
(§4) To evaluate average activity and EC50 values, the concentration/effect data are averaged across cells and fit to the logistic equation. Average values are reported as mean ±standard error.

[4] = target: α2β3γ2 GABAA subtype receptor (Homo sapiens, UniProt P18507+P47869); test: as above; type: cell-based; details: Xenopus oocytes, human subunits, GABA EC10
Sequence of α2β3γ2 GABAA subtype receptor (P47869 29-451): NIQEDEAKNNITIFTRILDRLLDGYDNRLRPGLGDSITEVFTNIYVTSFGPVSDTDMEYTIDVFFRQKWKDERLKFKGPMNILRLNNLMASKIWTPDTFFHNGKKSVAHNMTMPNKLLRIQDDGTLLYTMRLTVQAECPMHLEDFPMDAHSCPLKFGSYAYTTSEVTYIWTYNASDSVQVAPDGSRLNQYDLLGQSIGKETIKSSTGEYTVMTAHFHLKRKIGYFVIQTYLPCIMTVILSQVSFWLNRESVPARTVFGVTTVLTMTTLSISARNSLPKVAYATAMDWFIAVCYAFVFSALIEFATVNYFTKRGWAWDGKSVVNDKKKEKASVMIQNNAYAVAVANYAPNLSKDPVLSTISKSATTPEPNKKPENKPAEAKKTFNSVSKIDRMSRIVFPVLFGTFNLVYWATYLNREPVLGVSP
Sequence of α2β3γ2 GABAA subtype receptor (P28472 26-473 partner): as the sequence (P28472 26-473 partner) above
Sequence of α2β3γ2 GABAA subtype receptor (P18507 40-475): as the sequence (P18507 40-475) above
Experimental: as §1, §2, §3, §4

[5] = target: α3β3γ2 GABAA subtype receptor (Homo sapiens, UniProt P18507+P34903); test: as above; type: cell-based; details: Xenopus oocytes, human subunits, GABA EC10
Sequence of α3β3γ2 GABAA subtype receptor (P34903 29-492): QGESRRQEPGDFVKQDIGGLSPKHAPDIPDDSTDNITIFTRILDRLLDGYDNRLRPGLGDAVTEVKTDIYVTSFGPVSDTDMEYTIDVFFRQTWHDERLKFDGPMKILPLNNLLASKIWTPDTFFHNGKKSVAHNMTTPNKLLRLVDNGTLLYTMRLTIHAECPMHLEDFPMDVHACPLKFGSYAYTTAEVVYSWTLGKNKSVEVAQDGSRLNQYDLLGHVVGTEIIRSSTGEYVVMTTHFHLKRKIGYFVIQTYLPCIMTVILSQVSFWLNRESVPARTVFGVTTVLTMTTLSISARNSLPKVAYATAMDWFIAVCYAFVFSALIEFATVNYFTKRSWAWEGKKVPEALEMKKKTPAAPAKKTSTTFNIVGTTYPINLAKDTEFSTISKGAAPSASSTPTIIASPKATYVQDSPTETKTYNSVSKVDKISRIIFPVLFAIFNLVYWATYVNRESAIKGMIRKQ
Sequence of α3β3γ2 GABAA subtype receptor (P28472 26-473 partner): as the sequence (P28472 26-473 partner) above
Sequence of α3β3γ2 GABAA subtype receptor (P18507 40-475): as the sequence (P18507 40-475) above
Experimental: as §1, §2, §3, §4

[6] = target: α1β2γ2 GABAA subtype receptor (Homo sapiens, UniProt P14867+P18507); test: as above; type: cell-based; details: Xenopus oocytes, human subunits, GABA EC10; for Emax: read-out: oocyte electrophysiology maximum potentiation (%) α1β2γ2
Sequence of α1β2γ2 GABAA subtype receptor (P14867 28-456): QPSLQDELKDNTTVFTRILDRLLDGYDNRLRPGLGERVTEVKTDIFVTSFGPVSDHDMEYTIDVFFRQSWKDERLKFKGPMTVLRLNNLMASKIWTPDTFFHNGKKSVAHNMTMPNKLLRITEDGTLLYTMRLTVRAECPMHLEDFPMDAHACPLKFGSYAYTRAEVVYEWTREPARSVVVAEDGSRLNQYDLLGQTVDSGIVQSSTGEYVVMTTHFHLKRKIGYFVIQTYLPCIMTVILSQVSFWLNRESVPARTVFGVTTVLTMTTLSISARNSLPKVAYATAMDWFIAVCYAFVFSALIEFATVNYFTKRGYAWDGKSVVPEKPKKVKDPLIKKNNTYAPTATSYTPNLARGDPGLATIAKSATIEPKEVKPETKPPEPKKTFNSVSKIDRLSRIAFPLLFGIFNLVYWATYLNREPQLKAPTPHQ
Sequence of α1β2γ2 GABAA subtype receptor (P47870 25-512 partner limits assumed): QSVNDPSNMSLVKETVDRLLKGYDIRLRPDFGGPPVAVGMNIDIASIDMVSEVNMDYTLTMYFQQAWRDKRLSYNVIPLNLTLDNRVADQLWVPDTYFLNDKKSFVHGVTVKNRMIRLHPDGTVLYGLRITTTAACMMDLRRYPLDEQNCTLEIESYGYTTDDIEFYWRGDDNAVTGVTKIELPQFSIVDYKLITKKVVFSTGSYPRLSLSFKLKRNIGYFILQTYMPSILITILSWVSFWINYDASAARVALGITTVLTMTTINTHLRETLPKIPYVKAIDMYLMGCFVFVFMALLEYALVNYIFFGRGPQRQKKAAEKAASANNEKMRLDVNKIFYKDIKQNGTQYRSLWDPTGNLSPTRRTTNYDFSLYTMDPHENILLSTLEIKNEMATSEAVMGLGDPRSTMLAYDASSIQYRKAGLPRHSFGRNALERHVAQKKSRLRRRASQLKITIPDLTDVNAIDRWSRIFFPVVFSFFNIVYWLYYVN
Sequence of α1β2γ2 GABAA subtype receptor (P18507 40-475): as the sequence (P18507 40-475) above
Experimental: as §1, §2, §3, §4

rats [7] = test: spontaneous locomotor activity; type: in vivo; details: rat
Experimental: Spontaneous locomotor activity can be measured to determine sedative effects of compounds. Locomotor activity is measured in eight computerized Digiscan-16 Animal Activity Monitors (Omnitech Electronics, Columbus, Ohio) equipped with 48 infrared photocell emitters and detectors. Each box is constructed of Plexiglas sides and floor. Horizontal activity is detected by a set of horizontal sensors on the front to back walls and a second group of sensors on the side to side walls located 5 cm above the cage floor. Vertical activity is detected by a third set of sensors on the side to side walls located 13.5 cm above the cage floor. The rats are tested in the presence of white noise (62 dB) and red St light (60 watt).
Test compound is administered IV in a 50% PEG vehicle 5 minutes prior to the test session. A range of compound doses is typically used and 6 to 8 rats are tested at each dose. The animal's movement time, vertical activity, and total distance traveled are tracked over a 15 minute test session. A sedative, or hypnotic, effect in the spontaneous locomotor activity model is defined by a decrease in any two of these three measures relative to animals given vehicle alone.

rats [8] = test: Porsolt forced swim test; type: in vivo; details: rat, administered IV, statistically significant response
Description: The effects measured in this model have been correlated to antidepressant efficacy for drugs. The paradigm of this model is that an effective antidepressant compound will cause a rat to make greater attempts to escape a water-filled cylinder than a rat given vehicle only.
Animals used in this study were non-naive male Sprague Dawley Rats (SASCO, St. Louis) weighing between 280-350 grams. The test apparatus consists of 6 clear Plexiglas cylinders 40 cm high×19 cm wide. Cylinders are filled to 18 cm with 25° C. water. Each rat is placed in a cylinder for a 15 minute training session. Following either subchronic or acute dosing of either vehicle (0.5% methylcellulose) of compound, animals are brought back 24 hours later for a 5 minute test session. These test session is videotaped for later scoring.
Subchronic dosing consists of administering drug three times in the 24-hour period between training and testing. The drug is administered 24 hrs., 5 hrs., and 1 hr. prior to the test session. Acute dosing consists of administering the drug once, 1 hour prior to the test session. Scoring is done using a time-sampling computer program written in Visual Basic and run in DOS. […] These sampling score are then converted into percentages of the test session.

rats [9] = test: elevated plus maze; type: in vivo; details: rat, IV, statistically significant response (anxiolytic effect)
Experimental: The elevated plus maze model capitalizes on rats' innate fear of open, elevated places. The test apparatus is an elevated plus maze consisting of two open arms and two closed arms. A rat will naturally chose to spend more time on the closed arms of the maze than on the open arms but that if an efficacious anxiolytic compound is administered to the rat prior to the test the amount it of time the rat spends in the open arms is increased.
Test compound is administered IV in a 50% PEG (polyethylene glycol) vehicle 5 minutes prior to the test session. A range of compound doses is typically used and 8-10 rats are tested at each dose. The rat is placed in the center of the maze facing one of the open arms. The animal's locomotion is tracked over a five minute test session using photocells interfaced to a computer. The computer measures the number of entries into each arm and the time spent on each arm. An anxiolytic effect in the elevated plus maze model is defined by an increase in the percentage of time spent on the open arms in compound versus vehicle treated animals.

[10] = tested on: bicuculline-induced seizures in rats; test: bicuculline seizure threshold test; type: in vivo; details: rat, compound infused 5 minutes before bicuculline
Description: This test provides a measure of whether the test compound is proconvulsant by measuring whether the test compound produces any change in the dose of the seizure inducing drug, bicuculline, needed to elicit seizures in rats. Test compounds must show <25% decrease in seizure threshold or p>0.05 significance to be considered as drug candidates.
Adult male Sprague-Dawley rats (175-300 g) are weighed and placed in a rat restrainer. A Teflon® indwelling catheter is placed in one of the lateral tail veins and held in place with surgical tape. The catheter and a 3.0 cc syringe are connected by a length of PE-100 tubing fitted with Hamilton male and female adapter. Patency of catheter placement is tested by backflow of venous blood and ready infusion of less than 2 ml of saline solution. Animals are placed in a clear acrylic cage for behavioral observation.
The test compound is prepared in either 25% or 50% polyethylene glycol 400 (PEG) vehicle. A bicuculline (BIC) stock solution of 1.0 mg/ml BIC in 25% PEG/75% 1N HCl is also prepared. […]
Test compound is infused 5 minutes prior to the start of bicuculline infusion. […] The time elapsed from the start of bicuculline infusion to first myoclonic jerk (first head/neck twitch), the initiation of full myoclonus (writhing), and final forelimb extension is all recorded using a digital stopwatch. […]

rats [11] = test: step-down passive avoidance; type: in vivo; details: rat, IV, cognitive enhancement
Description: In step-down passive avoidance a rat is placed on a platform located in the center of an electrified grid floor that is contained within a large (45 cm×45 cm×50 cm) white translucent Plexiglas® enclosure. The natural inclination of the rat is to step off the platform and investigate its surroundings. […] Each time the animal steps off the platform it receives a mild foot shock of 2 mAmps×6 sec. Following each shock the animal is removed from the box, placed in its cage for a one minute inter-trial interval, and then returned to the platform. The latency to step down on each trial, the number of trials taken to reach criterion during training and the retention latency are collected.
Testing is conducted approximately 24 hrs. after training. Drug-free animals are placed on the platform in the box in which they will have been trained and the latency to step down onto the grid floor is recorded for one trial as a measure of memory retention.

Row | SMILES | Ki [1] | Emax [3] | oocyte electrophysiology maximum potentiation (%) α2β3γ2 [4] | oocyte electrophysiology maximum potentiation (%) α3β3γ2 [5] | Porsolt swim test, minimal efficacious dose (rats [8]) | oocyte electrophysiology maximum potentiation (%) α5β3γ2 [3] | elevated plus maze, minimal efficacious dose (rats [9]) | oocyte electrophysiology maximum potentiation (%) α1β2γ2 [6] | further results
1 | COc1ccc(F)c(-c2ncc3[nH]c4c(c3n2)CCCC4)c1 [compound 11] | 33 nM | -22% | 21% | 36% | – | – | – | – | cognitive model (spatial water maze), minimal efficacious dose (rats [2]; PO): PO = 10.0^†† mg/kg; Emax [6]: -11%
2 | CCOc1ccc(NC(=O)c2c[nH]c3c2C(=O)CCC3)cc1 [compound 3] | – | -11% | – | – | 20 mg/kg | 38% | 0.125 mg/kg | – | spontaneous locomotor activity, minimal efficacious dose (rats [7]; in vivo, iv, 15 min): 4 mg/kg
3 | O=C1C2C=Nc3ccccc3C2=NN1c1ccccc1 (centres unmarked) [CGS 8216, reference compound] | – | – | −10% | −8% | – | −39% | – | −26% | bicuculline seizure threshold, mean percent decrease in seizure threshold over the dose range studied [10]: 50%; cognitive model (step-down passive avoidance), minimal efficacious dose (rats [11]): 0.06 mg/kg
4 | CNCc1ccc(NC(=O)c2c[nH]c3c2C(=O)CCCC3)cc1 [compound 4] | – | 0% | – | – | 20 mg/kg | 38% | 0.5 mg/kg | – | –
5 | CC(C)(C)OC(=O)c1ncn2c1C1CCCN1C(=O)c1c(Br)cccc1-2 (centres unmarked) [Ro16-6028, reference compound] | 0.48 nM | – | 37% | 76% | 1 mg/kg | 64% | – | 40% | spontaneous locomotor activity, minimal efficacious dose (rats [7]; IV, sedation as side effect (Tables V and IX)): 0.06 mg/kg; EC50 [3]: 3 nM; EC50 [4]: 5 nM; EC50 [5]: 5 nM; EC50 [6]: 3 nM
6 | CCOc1ccc(-n2c(=O)c3c[nH]c4ccccc4n-3c2=O)cc1 [compound 1] | – | -11% | – | – | 20 mg/kg | 15% | 0.03 mg/kg | 12% | EC50 [3]: 88 nM
7 | O=C(Nc1ccccc1)c1c[nH]c2c1C(=O)CCCC2 [compound 13] | 6.3 nM | -20% | 9% | 14% | – | – | – | – | cognitive model (spatial water maze), minimal efficacious dose (rats [2]; IV): 0.125^†† mg/kg; Emax [6]: -17%
